From patent publication US7718715B2, “pH-modified latex comprising a synergistic combination of biocides” (S.C. Johnson & Son, Inc., priority 2004, dated 2010)

What was measured:
[1] = tested on: Escherichia coli #11229, Pseudomonas aeruginosa #15442; test: Challenge Test (Antimicrobial Effectiveness Test), bacterial inoculum (1:1 mixture); format: cell-based, E. coli & P. aeruginosa; conditions: stabilized acrylic latex A
Experimental: The following cultures were obtained from American Type Culture Collection (ATCC) at 10801 University Boulevard, Manassas, Va. 20110-2209: Escherichia coli #11229, Pseudomonas aeruginosa #15442, Candida albicans #10231, Aspergillus niger #6275. The bacterial inoculum was 0.10 ml of a 1:1 mixture of the 24-hr±4 hr culture of E. coli and P. aeruginosa in 25 grams of sample to give approximately 4×10^6 CFU/g. Both E. coli culture and the P. aeruginosa culture were grown in Nutrient Broth (Difco Laboratories, Detroit, Mich.) at 35° C. Each of the 25-g samples were inoculated or challenged with 0.10 ml of the bacterial inoculum, the yeast inoculum, and the mold inoculum respectively on day-0 and day-14. All samples were stored at ambient temperature. Each sample (10 microliter) was streaked on appropriate agar plates (bacteria on Tryptic Soy Agar (Difco Laboratories, Detroit, Mich.) plates with neutralizer and yeast/mold on Potato Dextrose Agar (Difco Laboratories, Detroit, Mich.) plates with neutralizer) on day-1, day-2, day-3, day-7, day-14, day-15, day-16, day-17, day-21, and day-28 to test for survivors. Streaked plates were incubated at appropriate temperature and time (48-hr at 35±2° C. for bacteria and 72-hr at 28±2° C. for yeast/mold). On day-14, each sample was re-inoculated with appropriate inoculum after streaking on agar plates. Plates were read after incubation time. Recovery of surviving organisms at 14 days was a failing result for the challenge test. Biocides were always added after the reaction has been completed and after the batch has been cooled to <50° C. The desired temperature was dependent on the specific biocide. Many biocides become deactivated if exposed to high temperatures for an extended time. Each biocide was diluted with about 5× its weight with DI water and slowly added to the batch with good agitation. The dilution is to prevent the biocide from shocking the latex. The batch was mixed for a minimum of 20 minutes after the biocide was added to ensure good incorporation. If any temporary destabilization to the latex had occurred, it had time to recover prior to filtration. The Challenge Test is a qualitative laboratory procedure used to differentiate poorly and marginally preserved products from well-preserved products. Products are intentionally inoculated with test organisms and then evaluated by use of streak plating technique to determine if microbial reduction has been attained.

[2] = tested on: Aspergillus niger #6275; test: Challenge Test (Antimicrobial Effectiveness Test), mold inoculum; format: cell-based; conditions: stabilized acrylic latex A
Experimental: The following cultures were obtained from American Type Culture Collection (ATCC) at 10801 University Boulevard, Manassas, Va. 20110-2209: Escherichia coli #11229, Pseudomonas aeruginosa #15442, Candida albicans #10231, Aspergillus niger #6275. The mold inoculum was 0.10 ml of A. niger culture specimen in 25 grams of sample to give approximately 2×10^5 CFU/g. The culture specimen was obtained from 7-day-old A. niger culture grown on Sabouraud Dextrose Agar (Difco Laboratories, Detroit, Mich.) with 0.2% Triton X-100 in 0.85% saline. Each of the 25-g samples were inoculated or challenged with 0.10 ml of the bacterial inoculum, the yeast inoculum, and the mold inoculum respectively on day-0 and day-14. All samples were stored at ambient temperature. Each sample (10 microliter) was streaked on appropriate agar plates (bacteria on Tryptic Soy Agar (Difco Laboratories, Detroit, Mich.) plates with neutralizer and yeast/mold on Potato Dextrose Agar (Difco Laboratories, Detroit, Mich.) plates with neutralizer) on day-1, day-2, day-3, day-7, day-14, day-15, day-16, day-17, day-21, and day-28 to test for survivors. Streaked plates were incubated at appropriate temperature and time (48-hr at 35±2° C. for bacteria and 72-hr at 28±2° C. for yeast/mold). On day-14, each sample was re-inoculated with appropriate inoculum after streaking on agar plates. Plates were read after incubation time. Recovery of surviving organisms at 14 days was a failing result for the challenge test. Biocides were always added after the reaction has been completed and after the batch has been cooled to <50° C. The desired temperature was dependent on the specific biocide. Many biocides become deactivated if exposed to high temperatures for an extended time. Each biocide was diluted with about 5× its weight with DI water and slowly added to the batch with good agitation. The dilution is to prevent the biocide from shocking the latex. The batch was mixed for a minimum of 20 minutes after the biocide was added to ensure good incorporation. If any temporary destabilization to the latex had occurred, it had time to recover prior to filtration. The Challenge Test is a qualitative laboratory procedure used to differentiate poorly and marginally preserved products from well-preserved products. Products are intentionally inoculated with test organisms and then evaluated by use of streak plating technique to determine if microbial reduction has been attained.

[3] = tested on: Candida albicans #10231; test: Challenge Test (Antimicrobial Effectiveness Test), yeast inoculum; format: cell-based; design: key to Challenge Test result: Yeast C. albicans: Fail: Recovery of surviving organisms at 14 days was a failing result for the challenge test; conditions: for Challenge Test result: Yeast C. albicans: stabilized acrylic latex A
Experimental: The following cultures were obtained from American Type Culture Collection (ATCC) at 10801 University Boulevard, Manassas, Va. 20110-2209: Escherichia coli #11229, Pseudomonas aeruginosa #15442, Candida albicans #10231, Aspergillus niger #6275.
The yeast inoculum was 0.10 ml of a 72-hr±4 hr culture of C. albicans in 25 grams of sample to give approximately 2×10^5 CFU/g. The C. albicans culture was grown in Potato Dextrose Broth (Difco Laboratories, Detroit, Mich.) at 28° C.
(§1) Each of the 25-g samples were inoculated or challenged with 0.10 ml of the bacterial inoculum, the yeast inoculum, and the mold inoculum respectively on day-0 and day-14. All samples were stored at ambient temperature. Each sample (10 microliter) was streaked on appropriate agar plates (bacteria on Tryptic Soy Agar (Difco Laboratories, Detroit, Mich.) plates with neutralizer and yeast/mold on Potato Dextrose Agar (Difco Laboratories, Detroit, Mich.) plates with neutralizer) on day-1, day-2, day-3, day-7, day-14, day-15, day-16, day-17, day-21, and day-28 to test for survivors. Streaked plates were incubated at appropriate temperature and time (48-hr at 35±2° C. for bacteria and 72-hr at 28±2° C. for yeast/mold). On day-14, each sample was re-inoculated with appropriate inoculum after streaking on agar plates. Plates were read after incubation time. Recovery of surviving organisms at 14 days was a failing result for the challenge test.
Biocides were always added after the reaction has been completed and after the batch has been cooled to <50° C. The desired temperature was dependent on the specific biocide. Many biocides become deactivated if exposed to high temperatures for an extended time. Each biocide was diluted with about 5× its weight with DI water and slowly added to the batch with good agitation. The dilution is to prevent the biocide from shocking the latex. The batch was mixed for a minimum of 20 minutes after the biocide was added to ensure good incorporation. If any temporary destabilization to the latex had occurred, it had time to recover prior to filtration.
The Challenge Test is a qualitative laboratory procedure used to differentiate poorly and marginally preserved products from well-preserved products. Products are intentionally inoculated with test organisms and then evaluated by use of streak plating technique to determine if microbial reduction has been attained.

[4] = tested on: C. albicans & A. niger; test: Challenge Test end point on yeast and mold and Synergy Index (Kull); format: cell-based; conditions: Dowicil 75 acting alone (QA); test stabilized acrylic latex A
Experimental: as §1, with “On day-14, each sample was re-inoculated with appropriate inoculum after streaking on agar plates.” left out, “Recovery of surviving organisms at 14 days was a failing result for the challenge test.” left out
Synergism was determined by the method described by F. C. […] Eisman, H. D. Sylwestrowicz, and R. L. Mayer in Applied Microbiology, Volume 9, pages 538-541, 1961 using the ratio determined by • Synergy Index (SI)=Qa/QA+Qb/QB=1 is additivity, <1 is synergism, and >1 is antagonism • where, • Qa=concentration of compound A, in the mixture, producing an end point • QA=concentration of compound A, acting alone, producing an end point • Qb=concentration of compound B, in the mixture, producing an end point • QB=concentration of compound B, acting alone, producing an end point

[5] = 0.20% Dowicil 75, 0.00% Bronopol, DN 12%, pH 6.3
[6] = 0.30% Dowicil 75, 0.00% Bronopol, DN 4%, pH 5.7
[7] = 0.40% Dowicil 75, 0.00% Bronopol, DN 4%, pH 5.75
[8] = 0.40% Dowicil 75, 0.00% Bronopol, DN 17%, pH 6.5

**Q.** With ClC=CC[N+]12CN3CN(CN(C3)C1)C2.[Cl-] [Dowicil 75, 1-(3-chloroallyl)-3,5,7-triaza-1-azoniaadamantane chloride] as the compound, how does the “Challenge Test result: Bacteria E. coli & P. aeruginosa” value [1, 5] read?
**A.** Pass

**Q.** And the “Challenge Test result: Bacteria E. coli & P. aeruginosa” value [1, 6]?
**A.** Pass

**Q.** What about the “Challenge Test result: Bacteria E. coli & P. aeruginosa” value [1, 7] of the same compound?
**A.** Pass

**Q.** And the “Challenge Test result: Bacteria E. coli & P. aeruginosa” value [1, 8]?
**A.** Pass

**Q.** And the “Challenge Test result: Mold A. niger” value [2, 5]?
**A.** Pass

**Q.** And the “Challenge Test result: Mold A. niger” value [2, 6]?
**A.** Pass

**Q.** And the “Challenge Test result: Mold A. niger” value [2, 7]?
**A.** Pass

**Q.** What about the “Challenge Test result: Mold A. niger” value [2, 8] of the same compound?
**A.** Pass

**Q.** What about the “Challenge Test result: Yeast C. albicans” value [3, 5] of the same compound?
**A.** Fail

**Q.** And the “Challenge Test result: Yeast C. albicans” value [3, 6]?
**A.** Pass

**Q.** And the “killing of the yeast (C. albicans)” value ([3]; 0.4% DOWICIL 75, stabilized acrylic latex A with DN at 17%)?
**A.** failed to kill

**Q.** What about the “Challenge Test result: Yeast C. albicans” value [3, 7] of the same compound?
**A.** Pass

**Q.** What about the “Challenge Test result: Yeast C. albicans” value [3, 8] of the same compound?
**A.** Fail

**Q.** And the “control of Candida albicans” value ([3]; maximum allowable level, test stabilized acrylic latex)?
**A.** failed to control

**Q.** What about the “Compound A end-point in %” value [4] of the same compound?
**A.** >0.4%
